These results are taken from patent US20180228801A1, “Method for Enhancing Learning Ability and Memory of Patients with Alzheimer's Disease using Mocetinostat” (National Taiwan Normal University, priority 2017, published 2018).

In assay [1] the test system is mice with oligomeric Aβ25-35 injected into bilateral hippocampal CA1. Briefly: Open Field Test. The following applies: for time spent at the central area (anxiety): Aβ25-35 mice, vs Aβ25-35 alone. The format is in vivo, mice (C57BL/6J). As for the experimental part: (§1) Further, in some embodiments of the present invention, C57BL/6J strain male mice (12 week old) are used as a subject in need. After mice are allowed to adapt to the environment for 6 days, mice are anesthetized with Avertin (0.4 g/kg; purchased from Sigma). The mice are fixed on a stereotactic apparatus for operation, followed by injecting oligomeric Aβ25-35 (10 nM, 3 μL) into bilateral hippocampal CA1 (AP: […] relative to the bregma; ML: ±[…] relative to the midline; DV: […] relative to the skull) on day 7. MGCD0103 and equal volume of vehicle (saline) are intraperitoneal (i.p.) injected once a day from day 8, the day after said operation, for 29 days. On day 24, the Open Field Test is performed; on day 26, the EPM is performed; on day 28, the Y-maze is performed; on days 30 to 36, MWM is performed; and on day 37, mice are euthanized for pathological analysis.
In an embodiment, OFT is performed to said mice. The mice are placed in a central area of a white box (30 cm×30 cm×30 cm). Then, mice are allowed spontaneously walk for 10 minutes, and the time that mice spend at the central area (15 cm×15 cm×15 cm) in the first 5 minutes is recorded. Since mice tend to spend time at a peripheral area of an open field when anxious, observing the time spent in the central zone there by the mice will give an indication of the level of anxiety of the mice. In addition, counting the total distance that the mice have moved in the last 5 minutes may determine an index of spontaneous exercise ability of the mice. After finishing the test for each mouse, the box was wiped with 70% and 30% (v/v) of ethanol solution to remove remaining odor in order to avoid affecting other test results.

The subject of assay [2] is adrenergic neurons in locus coeruleus (LC). Description: Immunohistochemical staining, adrenergic neurons (TH). Format: in vivo, mice (C57BL/6J). The following applies: saline-injected mice; Mean±SEM. On the procedure: as §1
The inventor collects the brain tissue by perfusion followed by fixing and dehydrating, then, 30 μm frozen sections are obtained by a freezing microtome (CMS3050S, Leica). […] After that, avidin-biotin complex (ABC) is detected 1 hour after staining. […] After all sections have been stained, they are then fixed on a slide, dried, dehydrated, mounted, and photographed for quantity (performed by Image Pro Plus, Meida Cyberetics, USA). […]

The test system of assay [3] is primary hippocampus neurons. Briefly: Primary hippocampus neurons damaged by oligomeric Aβ25-35, immune-fluorescent staining (NeuN, MAP2). Format: cell-based, mouse (C57BL/6J). As to conditions: 48 hours after 50 μM oligomeric Aβ25-35, vs group treated with Aβ25-35. As for the experimental part: The method of culturing mouse primary hippocampus neurons follow from a modified method from the prior art (Seibenhener and Wooten, 2012), including: obtaining a 16-18 day old embryo from a C57BL/6J strain pregnant female mouse after euthanasia, obtaining hippocampus tissue of the embryo and digesting the tissue with 0.05% trypsin at 37° C. for 15 minutes, and seeding 3×10^4 cells per well in a 48-well plate coated with Poly-L-lysine (100 μg/mL); wherein the components of the medium includes: Neurobasal Medium® (Gibco™; ThermoFisher Scientific, USA) adding 2% of B-27® Additive (Gibco™; ThermoFisher), 0.5 mM of glutamine (Gibco™; ThermoFisher), 25 μM of glutamate (Sigma-Aldrich, USA), 20 unit/mL of penicillin/streptomycin solution (Gibco™; ThermoFisher Scientific, USA), 1 mM of 4-(2-hydroxyethyl)-1-piperazineethanesulfonic acid) (HEPES) (Sigma-Aldrich), and 1% of heat inactivated Donor Horse Serum (Gibco™; ThermoFisher). Primary hippocampus neurons are cultured in an incubator in an environment of 37° C. and 5% CO2.
In some embodiments, experiments should be performed when said cells are in an Alzheimer's disease state. […] Further, 50 μM of oligomeric Aβ25-35 are applied for 1 hour, and then a high dose (70 nM) and low dose (35 nm) of MGCD0103 is applied for 48 hours on day 9. Finally, the cells are collected for immune-fluorescent staining.
The collected cells are analyzed with immune-fluorescence staining. First, fixing the cells with 4% of paraformaldehyde (PFA) (Sigma-Aldrich) for 30 minutes; rinsing the cells three times with PBST with a time interval of 10 minutes so as to remove remaining PFA; blocking the cells with 10% fetal bovine serum (FBS) for 2 hours; adding NeuN (1:1000; Milipore, USA) and MAP2 (1:1000; Milipore, USA) primary antibodies and allowing reaction at 4° C. for 16 hours; then allowing reaction with secondary antibodies at 37° C. for 2 hours; finally, staining nucleus with […] (DAPI) (Sigma-Aldrich) and analyzing to obtain values such as numbers of neurons, lengths of synapses, and numbers of branches with a High Content Micro-Imaging Acquisition and Screening System and MetaXpress (purchased from Molecular Devices).

[4] abbreviates: high dose 0.5 mg/kg i.p. once a day.

SMILES strings stand for the structures.

With `Nc1ccccc1NC(=O)c1ccc(CNc2nccc(-c3cccnc3)n2)cc1` [MGCD0103, N-(2-Aminophenyl)-4-[[(4-pyridin-3-ylpyrimidin-2-yl)amino]methyl] benzamide], the “time spent at the central area (anxiety)” value in assay [1] (setting [4]) and in assay [1] (low dose 0.01 mg/kg i.p. once a day) was “significantly increase” throughout. Besides, the “total moving distance (spontaneous exercise ability)” value in assay [1] (setting [4]) was “does not influence”; in assay [1] (low dose 0.01 mg/kg i.p. once a day, vs group treated with saline), “reduced”. In assay [2], the “TH, numbers of adrenergic neurons” value turned out to be 44.58 ± 2.05. Moreover, the lengths of neurites result in assay [3] (high dose (70 nM)) and in assay [3] (low dose (35 nM)) was “significantly improved” throughout. The “numbers of neuron cells (NeuN+)” value in assay [3] (high dose (70 nM)) and in assay [3] (low dose (35 nM)) was “significantly improved” each time.
